According to paper PMC11528470, “Evidence for the Quercetin Binding Site of Glycogen Phosphorylase as a Target for Liver-Isoform-Selective Inhibitors against Glioblastoma: Investigation of Flavanols Epigallocatechin Gallate and Epigallocatechin” (Journal of Agricultural and Food Chemistry, 2024):
Read-outs that look alike come from different tables or passages of the source.

Legend:
[1] = molecular target: T1, Rabbit skeletal muscle glycogen phosphorylase b (rmGPb) (Oryctolagus cuniculus, UniProt P00489)
T1 construct: gene PYGM
T1 sequence (P00489 2-843): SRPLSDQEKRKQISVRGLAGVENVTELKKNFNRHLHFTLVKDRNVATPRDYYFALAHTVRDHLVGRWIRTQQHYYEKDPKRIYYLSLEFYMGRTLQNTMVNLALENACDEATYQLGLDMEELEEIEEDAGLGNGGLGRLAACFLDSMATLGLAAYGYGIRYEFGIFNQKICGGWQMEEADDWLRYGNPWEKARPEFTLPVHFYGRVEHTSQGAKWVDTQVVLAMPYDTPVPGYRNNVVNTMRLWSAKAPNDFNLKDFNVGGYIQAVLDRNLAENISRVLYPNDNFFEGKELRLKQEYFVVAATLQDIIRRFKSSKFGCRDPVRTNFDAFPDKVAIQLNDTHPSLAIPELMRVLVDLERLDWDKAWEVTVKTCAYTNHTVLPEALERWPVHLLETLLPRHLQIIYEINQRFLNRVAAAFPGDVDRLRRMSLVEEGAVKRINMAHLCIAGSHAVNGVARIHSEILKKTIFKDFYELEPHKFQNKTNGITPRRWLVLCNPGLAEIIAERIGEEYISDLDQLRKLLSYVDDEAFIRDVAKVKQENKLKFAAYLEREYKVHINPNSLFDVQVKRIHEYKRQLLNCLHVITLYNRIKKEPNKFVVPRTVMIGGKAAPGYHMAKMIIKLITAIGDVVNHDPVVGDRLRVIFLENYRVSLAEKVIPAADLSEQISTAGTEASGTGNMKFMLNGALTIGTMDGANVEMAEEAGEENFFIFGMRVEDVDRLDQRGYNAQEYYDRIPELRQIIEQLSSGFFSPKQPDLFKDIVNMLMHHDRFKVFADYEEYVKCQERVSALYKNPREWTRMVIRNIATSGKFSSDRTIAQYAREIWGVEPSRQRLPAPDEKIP

[2] = molecular target: T1, Rabbit skeletal muscle glycogen phosphorylase b (rmGPb); assay: X-ray crystal structure ([…] Å) plus enzyme kinetics (noncompetitive Ki); assay type: biochemical
[3] = molecular target: T2, human liver glycogen phosphorylase a (hlGPa) (Homo sapiens, UniProt P06737); assay: enzyme kinetics on purified hlGPa, Lineweaver–Burk; assay type: biochemical
T2 construct: gene PYGL
T2 sequence (P06737 2-847): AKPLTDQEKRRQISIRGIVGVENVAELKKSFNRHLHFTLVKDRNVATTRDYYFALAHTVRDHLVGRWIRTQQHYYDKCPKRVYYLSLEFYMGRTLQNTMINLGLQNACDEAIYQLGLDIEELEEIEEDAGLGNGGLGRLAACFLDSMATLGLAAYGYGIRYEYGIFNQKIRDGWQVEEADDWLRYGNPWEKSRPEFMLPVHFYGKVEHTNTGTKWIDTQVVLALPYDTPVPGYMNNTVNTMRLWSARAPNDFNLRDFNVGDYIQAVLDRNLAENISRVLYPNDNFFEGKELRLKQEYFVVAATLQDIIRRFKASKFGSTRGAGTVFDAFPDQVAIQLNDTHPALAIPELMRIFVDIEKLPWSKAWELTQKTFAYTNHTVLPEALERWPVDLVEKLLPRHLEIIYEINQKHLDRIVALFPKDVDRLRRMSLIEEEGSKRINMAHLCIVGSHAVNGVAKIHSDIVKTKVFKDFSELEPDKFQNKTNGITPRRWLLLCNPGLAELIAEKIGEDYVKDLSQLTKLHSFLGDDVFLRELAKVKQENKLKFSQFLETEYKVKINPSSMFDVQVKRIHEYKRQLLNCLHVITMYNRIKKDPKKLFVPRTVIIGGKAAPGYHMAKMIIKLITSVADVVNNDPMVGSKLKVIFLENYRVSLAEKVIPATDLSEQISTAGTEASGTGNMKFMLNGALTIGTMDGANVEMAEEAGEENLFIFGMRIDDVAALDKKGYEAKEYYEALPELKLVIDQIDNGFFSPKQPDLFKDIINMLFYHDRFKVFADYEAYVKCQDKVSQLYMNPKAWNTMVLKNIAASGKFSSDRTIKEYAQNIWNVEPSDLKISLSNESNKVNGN

[4] = molecular target: T1, Rabbit skeletal muscle glycogen phosphorylase b (rmGPb); assay: X-ray crystal structure ([…] Å) plus enzyme kinetics (noncompetitive Ki); assay type: biochemical; remark: listed apart in the source
[5] = molecular target: T2, human liver glycogen phosphorylase a (hlGPa); assay: enzyme inhibition assay on purified hlGPa; assay type: biochemical
[6] = molecular target: T1, Rabbit skeletal muscle glycogen phosphorylase b (rmGPb); assay: X-ray crystal structure of ternary rmGPb-EGCG-glucose complex ([…] Å); multiple inhibition kinetics; assay type: binding

Cn1c(=O)c2c(ncn2C)n(C)c1=O [caffeine]
X-ray crystal structure of ternary rmGPb-EGCG-caffeine complex (2.5 Å); multiple [1]: EGCG can bind at the QBS simultaneously with glucose at the catalytic site or caffeine at the inhibitor site

O=C(O[C@@H]1Cc2c(O)cc(O)cc2O[C@@H]1c1cc(O)c(O)c(O)c1)c1cc(O)c(O)c(O)c1 [EGCG]
Ki [2]: 49.8 ± 1.6 µM
Ki [3]: 17.6 ± 0.7 µM

Oc1cc(O)c2c(c1)O[C@H](c1cc(O)c(O)c(O)c1)[C@H](O)C2 [EGC]
Ki [4]: 286 ± 14.1 µM
IC50 [5]: 194 ± 3.5 µM

OC[C@H]1OC(O)[C@H](O)[C@@H](O)[C@@H]1O (stereo partly drawn) [glucose]
X-ray crystal structure of ternary rmGPb-EGCG-glucose complex (2.0 Å); multiple [6]: EGCG can bind at the QBS simultaneously with glucose at the catalytic site or caffeine at the inhibitor site
